Test results as given in ChEMBL document CHEMBL5550171, “Poly (ADP-ribose) polymerase (PARP) inhibitors as anticancer agents: An outlook on clinical progress, synthetic strategies, biological activity, and structure-activity relationship” (Eur J Med Chem, 2024).
Values belong to the compound of their own block, whether it stands above or below them.

Legend:
[1] = test system: MDA-MB-436; assay: Antiproliferative activity against human MDA-MB-436 cells assessed as reduction in cell viability incubated for 72 hrs by MTT assay; type: functional, cell-based; settings: MDA-MB-436, 72 h
[2] = molecular target: T1, Poly [ADP-ribose] polymerase 1 (Homo sapiens, UniProt P09874); assay: Inhibition of human recombinant PARP-1 by ELISA assay
[3] = test system: Panel NCI-60 (60 carcinoma cell lines); assay: Cytotoxicity against human Panel NCI-60 (60 carcinoma cell lines); type: functional, cell-based
[4] = molecular target: T1, Poly [ADP-ribose] polymerase 1; assay: Inhibition of human PARP1
[5] = molecular target: T1, Poly [ADP-ribose] polymerase 1; assay: Inhibition of PARP1 (unknown origin)
[6] = test system: CAPAN-1; assay: Antiproliferative activity against human CAPAN-1 cells assessed as reduction in cell growth; type: functional, cell-based
[7] = test system: HCT-116; assay: Cytotoxicity against human HCT-116 cells assessed as reduction in cell growth incubated for 96 hrs by MTT assay; type: functional, cell-based; settings: HCT-116, 96 h
[8] = test system: MCF7; assay: Antiproliferative activity against human MCF7 cells assessed as reduction in cell growth measured after 72 hrs by MTT assay; type: functional, cell-based; settings: MCF7, 72 h
[9] = molecular target: T1, Poly [ADP-ribose] polymerase 1; assay: Inhibition of PARP1 (unknown origin) at 10 uM relative to control
[10] = molecular target: T2, Poly [ADP-ribose] polymerase 2 (Homo sapiens, UniProt Q9UGN5); assay: Inhibition of PARP2 (unknown origin) at 10 uM relative to control
[11] = Microsomal stability in rat liver microsomes assessed as half life measured for 48 hrs by LC-MS/MS analysis; type: ADME, Microsome
[12] = test system: MCF7; assay: Cytotoxicity against human MCF7 cells assessed as reduction in cell viability incubated for 24 hrs by MTS assay; type: functional, cell-based; settings: MCF7, 24 h
[13] = test system: MDA-MB-436; assay: Cytotoxicity against human MDA-MB-436 cells assessed as reduction in cell viability incubated for 24 hrs by MTS assay; type: functional, cell-based; settings: MDA-MB-436, 24 h
[14] = test system: MDA-MB-231; assay: Cytotoxicity against human MDA-MB-231 cells assessed as reduction in cell viability incubated for 24 hrs by MTS assay; type: functional, cell-based; settings: MDA-MB-231, 24 h
[15] = molecular target: T1, Poly [ADP-ribose] polymerase 1; assay: Inhibition of PARP1 (unknown origin) using biotinylated NAD+ as substrate by luminescence assay
[16] = molecular target: T2, Poly [ADP-ribose] polymerase 2; assay: Inhibition of PARP2 (unknown origin) using biotinylated NAD+ as substrate by luminescence assay
[17] = Microsomal stability in human liver microsomes assessed as half life measured for 48 hrs by LC-MS/MS analysis; type: ADME, Microsome
[18] = test system: MDA-MB-436; assay: Antiproliferative activity against human MDA-MB-436 cells assessed as reduction in cell viability; type: functional, cell-based
[19] = test system: Caco-2; assay: Cytotoxicity against human Caco-2 cells assessed as inhibition of cell growth incubated for 72 hrs by CCK-8 assay; type: functional, cell-based; settings: Caco-2, 72 h
[20] = Cytotoxicity against African green monkey Vero cells; type: toxicity, cell-based, Chlorocebus sabaeus
[21] = test system: MCF7; assay: Anticancer activity against human MCF7 cells assessed as reduction in cell viability; type: functional, cell-based
[22] = test system: MDA-MB-231; assay: Cytotoxicity against human MDA-MB-231 cells assessed as reduction in cell growth incubated for 72 hrs by alamar blue reagent based analysis; type: functional; settings: MDA-MB-231, 72 h
[23] = test system: MCF7; assay: Cytotoxicity against human MCF7 cells assessed as reduction in cell growth incubated for 72 hrs by alamar blue reagent based analysis; type: functional; settings: MCF7, 72 h
[24] = test system: MDA-MB-436; assay: Antiproliferative activity against human MDA-MB-436 cells; type: functional, cell-based
[25] = molecular target: T1, Poly [ADP-ribose] polymerase 1; assay: Inhibition of human recombinant PARP1 expressed in Escherichia coli BL21(DE3)
[26] = test system: MDA-MB-231; assay: Antiproliferative activity against human MDA-MB-231 cells assessed as reduction in cell growth incubated for 72 hrs by CCK-8 assay; type: functional, cell-based; settings: MDA-MB-231, 72 h
[27] = test system: CAPAN-1; assay: Antiproliferative activity against human CAPAN-1 cells assessed as reduction in cell viability incubated for 72 hrs by CCK-8 assay; type: functional, cell-based; settings: CAPAN-1, 72 h
[28] = test system: K562; assay: Antiproliferative activity against human K562 cells assessed as reduction in cell growth incubated for 72 hrs by CCK-8 assay; type: functional, cell-based; settings: K562, 72 h
[29] = test system: HCC1937; assay: Antiproliferative activity against human HCC1937 cells assessed as reduction in cell viability incubated for 72 hrs by CCK-8 assay; type: functional, cell-based; settings: HCC1937, 72 h
[30] = test system: MCF7; assay: Antiproliferative activity against human MCF7 cells assessed as reduction in cell growth incubated for 72 hrs by CCK-8 assay; type: functional, cell-based; settings: MCF7, 72 h
[31] = test system: A549; assay: Antiproliferative activity against human A549 cells assessed as reduction in cell growth incubated for 72 hrs by CCK-8 assay; type: functional, cell-based; settings: A549, 72 h
[32] = test system: MDA-MB-436; assay: Antiproliferative activity against human MDA-MB-436 cells assessed as reduction in cell viability incubated for 72 hrs by CCK-8 assay; type: functional, cell-based; settings: MDA-MB-436, 72 h
[33] = test system: MDA-MB-436; assay: Cytotoxicity against human MDA-MB-436 cells; type: functional, cell-based

T1 sequence (P09874 whole entry): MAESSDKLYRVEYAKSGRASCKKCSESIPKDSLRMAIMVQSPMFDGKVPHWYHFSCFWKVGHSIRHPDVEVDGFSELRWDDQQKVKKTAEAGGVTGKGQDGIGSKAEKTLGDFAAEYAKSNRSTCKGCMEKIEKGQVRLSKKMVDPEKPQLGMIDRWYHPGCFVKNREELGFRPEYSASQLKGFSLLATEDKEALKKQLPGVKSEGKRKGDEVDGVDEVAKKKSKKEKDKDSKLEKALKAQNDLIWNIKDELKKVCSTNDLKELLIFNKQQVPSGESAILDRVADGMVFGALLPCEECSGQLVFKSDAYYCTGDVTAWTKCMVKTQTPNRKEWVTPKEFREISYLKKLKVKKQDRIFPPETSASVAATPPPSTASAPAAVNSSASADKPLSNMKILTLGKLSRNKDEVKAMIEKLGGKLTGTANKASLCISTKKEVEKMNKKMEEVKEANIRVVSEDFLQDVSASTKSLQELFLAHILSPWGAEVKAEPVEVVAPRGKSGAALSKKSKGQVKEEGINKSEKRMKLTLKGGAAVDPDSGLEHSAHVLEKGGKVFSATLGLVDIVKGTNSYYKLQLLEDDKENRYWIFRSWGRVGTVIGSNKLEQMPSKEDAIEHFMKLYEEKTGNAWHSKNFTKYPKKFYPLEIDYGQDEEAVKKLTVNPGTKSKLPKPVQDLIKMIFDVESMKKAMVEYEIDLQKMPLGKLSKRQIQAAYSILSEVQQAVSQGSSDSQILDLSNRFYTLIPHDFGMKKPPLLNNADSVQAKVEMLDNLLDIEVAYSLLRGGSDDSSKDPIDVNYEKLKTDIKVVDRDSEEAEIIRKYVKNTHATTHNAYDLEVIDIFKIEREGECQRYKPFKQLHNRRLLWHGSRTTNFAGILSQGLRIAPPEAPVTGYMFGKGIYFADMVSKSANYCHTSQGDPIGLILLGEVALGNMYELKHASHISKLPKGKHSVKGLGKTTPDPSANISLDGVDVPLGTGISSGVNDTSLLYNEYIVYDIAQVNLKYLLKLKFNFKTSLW
T2 sequence (Q9UGN5 whole entry): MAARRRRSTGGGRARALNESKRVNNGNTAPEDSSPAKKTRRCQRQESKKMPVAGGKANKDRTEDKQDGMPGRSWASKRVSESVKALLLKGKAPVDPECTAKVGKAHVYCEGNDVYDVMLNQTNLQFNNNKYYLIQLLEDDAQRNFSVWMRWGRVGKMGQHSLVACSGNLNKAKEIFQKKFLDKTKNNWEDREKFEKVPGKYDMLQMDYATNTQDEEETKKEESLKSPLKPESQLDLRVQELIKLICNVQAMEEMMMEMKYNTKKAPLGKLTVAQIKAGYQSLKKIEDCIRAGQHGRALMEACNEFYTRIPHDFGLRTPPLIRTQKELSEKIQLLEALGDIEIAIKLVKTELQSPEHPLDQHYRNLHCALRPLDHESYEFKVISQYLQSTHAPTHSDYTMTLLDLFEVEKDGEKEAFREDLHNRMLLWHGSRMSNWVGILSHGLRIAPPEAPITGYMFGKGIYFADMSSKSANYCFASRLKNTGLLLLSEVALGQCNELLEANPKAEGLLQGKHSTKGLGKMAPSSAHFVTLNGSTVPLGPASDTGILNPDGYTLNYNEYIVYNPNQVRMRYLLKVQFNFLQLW

IC50 [1]: 43600 nM | IC50 [2]: 23 nM
SMILES: NC(=O)c1cccc2[nH]c(-c3ccc(C(=O)N4CCN(C(=O)c5ccc(Br)o5)CC4)cc3)nc12

IC50 [4]: 3.15 nM
SMILES: Cc1c(C(=O)/C=C/c2cccc([N+](=O)[O-])c2)nnn1-c1ccc(Br)cc1

IC50 [5]: 3.24 nM
SMILES: O=C(NCCc1ccc(F)cc1)c1cc(Cc2n[nH]c(=O)c3ccccc23)ccc1F
IC50 [6]: 7500 nM

IC50 [18]: 25400 nM
SMILES: Cc1ccoc1C(=O)N1CCCN(C(=O)c2ccc(-c3nc4c(C(N)=O)cccc4[nH]3)cc2)CC1

IC50 [21]: 800 nM
SMILES: CCOC(=O)CO/N=C(\N)c1ccccc1
IC50 [19]: 430 nM | IC50 [20]: 6760 nM

IC50 [24]: 8900 nM
SMILES: O=C(c1cc(Cc2n[nH]c(=O)c3ccccc23)ccc1F)N1CCN(C(=O)C2CC2)CC1 [OLAPARIB]
IC50 [22]: 70200 nM | IC50 [23]: 3200 nM

IC50 [25]: 8.65 nM
SMILES: NC(=O)c1cccc2[nH]c(-c3ccc(C(=O)NC4CCN(C(=O)c5ccc(Cl)o5)C4)cc3)nc12 (centres undefined)

IC50 [21]: 320 nM
SMILES: CCOC(=O)CO/N=C(\N)c1ccc(C)cc1
IC50 [19]: 400 nM | IC50 [20]: 480 nM

IC50 [25]: 16.3 nM
SMILES: Cc1ccoc1C(=O)N1CCN(C(=O)c2ccc(-c3nc4c(C(N)=O)cccc4[nH]3)cc2)C(C)C1 (centres undefined)

More lines, now with the values behind:

SMILES: CC(=O)c1nnn(-c2ccc(Br)cc2)c1C
IC50 [3]: 18 nM

SMILES: Nc1nc(S)nc2c1Oc1[nH]c(=O)[nH]c(=O)c1C2c1cccs1 (centres undefined)
IC50 [7]: 9310 nM

SMILES: O=C(Cn1c(=S)n(-c2ccccc2)c(=O)c2ccccc21)Nc1cccc2ccccc12
IC50 [5]: 140 nM | IC50 [8]: 10600 nM

SMILES: NC(=O)c1cccc2[nH]c(C3CCN(C4CCC(F)(F)CC4)CC3)nc12
inhibition [9]: 47.9% | inhibition [10]: 90.8% | half-life [11]: > 16.7 h | IC50 [12]: 60800 nM | IC50 [13]: 28300 nM | IC50 [14]: 96800 nM | IC50 [15]: 4.3 nM | IC50 [16]: 1.58 nM | half-life [17]: 4.38 h

SMILES: O=C(CCCc1ccc(N(CCCl)CCCl)cc1)N1CCN(C(=O)c2cc(Cc3n[nH]c(=O)c4ccccc34)ccc2F)CC1
IC50 [26]: 53800 nM | IC50 [27]: 86 nM | IC50 [28]: 10400 nM | IC50 [29]: 180 nM | IC50 [30]: 30600 nM | IC50 [31]: 1620 nM | IC50 [32]: 13 nM

SMILES: COc1ccc(/C=C2\CC3(CC4C2=NN(C(N)=S)C4c2ccc(OC)cc2)OCCO3)cc1 (centres undefined)
IC50 [33]: 670 nM

SMILES: COc1ccc(/C=C2\CC3(CC4C2OC(=O)C(C(C)=O)C4c2ccc(OC)cc2)OCCO3)cc1 (centres undefined)
IC50 [33]: 7470 nM
